Test results from publication PMC11356900, “Synthesis, Structural Properties and Biological Activities of Novel Hydrazones of 2-, 3-, 4-Iodobenzoic Acid” (Molecules, 2024).
In brackets after ≈: the same amount, converted by molar mass. Like-named read-outs stand apart in the source and are kept apart here.

Key:
Gram-positive bacteria = test: Broth microdilution, summary over reference Gram-positive bacteria; type: cell-based; settings: for antibacterial activity in words: reference Gram-positive bacteria / studied bacteria
Procedure, shortened: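 Following EUCAST and CLSI guidance, growth inhibition is measured in broth across final compound levels of 1000 down to 0.488 µg/mL. Cidal endpoints come from spotting each well onto agar; three independent repeats.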

L929 cell line = test: MTT cytotoxicity assay; type: cell-based, mouse; settings: for cytotoxicity: L929, 24 h culture
Procedure: Among all the newly synthesized compounds, four compounds designated as: 14, 20, 21 and 27 were selected for further testing of their cytotoxic properties at the doses of 10, 25, 50, 75 and 100 µM. The cytotoxic properties of the above compounds were tested on the cancer cell lines, i.e., A549 (ECACC 86012804) (non-small-cell lung cancer), T47D (ECACC 85102201) (breast cancer), HeLa (ATCC® CCL-2™) (cervical cancer) and normal line L929 (NCTC clone 929, ATCC® CCL-1™) (mouse fibroblasts) using the MTT test for 24- and 48 h cultures.
A549 (ECACC 86012804) (non-small-cell lung cancer) and T47D (ECACC 85102201) (breast cancer) were obtained from ECACC and propagated in Dulbecco’s Minimal Essential Medium, supplemented with 2 mM of glutamine, antibiotics ([…] streptomycin, 1% of 100 U/L penicillin) and 10% Fetal Bovine Serum. HeLa (ATCC® CCL-2™) (cervical cancer) and L929 (NCTC clone 929, ATCC® CCL-1™) (mouse fibroblasts) cell lines were obtained from ATCC and propagated in the Eagle Minimal Essential Medium supplemented with antibiotics ([…] streptomycin, 1% of 100 U/L penicillin) and with 10% and 5% FBS, respectively. The cell line was routinely grown in 75 cm^2 tissue culture flasks and kept in an incubator (humidified atmosphere of 5% CO2 at 37 °C). All examined cell lines were tested against mycoplasma contamination with microbiological assays.
The cell viability of tested compounds (14, 20, 21 and 27) was assessed by the MTT assay. In brief, the exponentially growing cells were plated in 100 μL/well in 96-well plates. After 24 h culturing, the cells were treated with different concentrations of compounds (range 10–100 μM). After 24 and 48 h of incubation, 10 μL of 5 mg/mL MTT was added to each well and the plates were incubated at 37 °C for additional 4 h. The medium was subsequently removed, the purple-colored precipitates of formazan were dissolved in 100 μL of DMSO. The color absorbance was recorded at 570 nm using a BioTek model EPOCH ELISA plate reader. All experiments were performed in triplicate. The absorbance values were in the range of linearity of the Lambert–Beer law.

[1] = test system: Staphylococcus aureus ATCC 25923; test: Broth microdilution MIC/MBC; settings: Staphylococcus aureus, ATCC25923
[2] = range over the reference Gram-positive bacteria
[3] = range over the reference Gram-positive bacteria, read-out: MBC
[4] = range over the reference Gram-positive bacteria, read-out: MIC

O=C(N/N=C/c1cc(I)cc(I)c1O)c1ccccc1I [Compound 14, N-[(3,5-diiodo-2-hydroxyphenyl)methylidene]-2-iodobenzohydrazide]
MBC/MIC (Gram-positive bacteria; [2]): 1–4 | MBC (Gram-positive bacteria; [3]): 125 to 1000 µg/mL (≈ 202 to 1620 µM) | MIC (Gram-positive bacteria; [4]): 62.5 to 500 µg/mL (≈ 101 to 809 µM) | antibacterial activity in words (Gram-positive bacteria): good or moderate | cell proliferation (L929 cell line; L929, 24h, 10 µM, Repeat No 1): 94% | cell proliferation (L929 cell line; L929, 24h, 10 µM, Repeat No 2): 94% | cell proliferation (L929 cell line; L929, 24h, 25 µM, Repeat No 1): 100% | cell proliferation (L929 cell line; L929, 24h, 25 µM, Repeat No 2): 89% | cell proliferation (L929 cell line; L929, 24h, 50 µM, Repeat No 1): 85% | cell proliferation (L929 cell line; L929, 24h, 50 µM, Repeat No 2): 73% | cell proliferation (L929 cell line; L929, 24h, 75 µM, Repeat No 1): 77% | cell proliferation (L929 cell line; L929, 24h, 75 µM, Repeat No 2): 69% | cell proliferation (L929 cell line; L929, 24h, 100 µM, Repeat No 1): 91% | cell proliferation (L929 cell line; L929, 24h, 100 µM, Repeat No 2): 97% | cytotoxicity (L929 cell line; dose of 75 µM): around 40% | cytotoxicity (L929 cell line; tested doses 10–100 µM): approximately 20% | cell proliferation (L929 cell line; L929, 48h, 10 µM, Repeat No 1): 75% | cell proliferation (L929 cell line; L929, 48h, 10 µM, Repeat No 2): 99% | cell proliferation (L929 cell line; L929, 48h, 25 µM, Repeat No 1): 106% | cell proliferation (L929 cell line; L929, 48h, 25 µM, Repeat No 2): 99% | cell proliferation (L929 cell line; L929, 48h, 50 µM, Repeat No 1): 83% | cell proliferation (L929 cell line; L929, 48h, 50 µM, Repeat No 2): 98% | cell proliferation (L929 cell line; L929, 48h, 75 µM, Repeat No 1): 83% | cell proliferation (L929 cell line; L929, 48h, 75 µM, Repeat No 2): 89% | cell proliferation (L929 cell line; L929, 48h, 100 µM, Repeat No 1): 94% | cell proliferation (L929 cell line; L929, 48h, 100 µM, Repeat No 2): 101% | melting point: 241 to 245 °C | MBC [1]: 250 µg/mL (≈ 405 µM) | MIC [1]: 125 µg/mL (≈ 202 µM)

O=C(N/N=C/c1cc(Cl)cc(I)c1O)c1cccc(I)c1 [Compound 20, N-[(5-chloro-2-hydroxy-3-iodophenyl)methylidene]-3-iodobenzohydrazide]
MBC (Gram-positive bacteria): 3.91 to 62.5 µg/mL (≈ 7.43 to 119 µM) | MIC (Gram-positive bacteria): 1.95 to 7.81 µg/mL (≈ 3.7 to 14.8 µM) | MBC/MIC (Gram-positive bacteria; [2]): 1–4 | antibacterial activity in words (Gram-positive bacteria): very strong (very strong bioactivity as a MIC < 10 µg/mL) | cell proliferation (L929 cell line; L929, 24h, 10 µM, Repeat No 1): 99% | cell proliferation (L929 cell line; L929, 24h, 10 µM, Repeat No 2): 104% | cell proliferation (L929 cell line; L929, 24h, 25 µM, Repeat No 1): 89% | cell proliferation (L929 cell line; L929, 24h, 25 µM, Repeat No 2): 95% | cell proliferation (L929 cell line; L929, 24h, 50 µM, Repeat No 1): 87% | cell proliferation (L929 cell line; L929, 24h, 50 µM, Repeat No 2): 112% | cell proliferation (L929 cell line; L929, 24h, 75 µM, Repeat No 1): 103% | cell proliferation (L929 cell line; L929, 24h, 75 µM, Repeat No 2): 96% | cell proliferation (L929 cell line; L929, 24h, 100 µM, Repeat No 1): 86% | cell proliferation (L929 cell line; L929, 24h, 100 µM, Repeat No 2): 94% | cytotoxicity (L929 cell line; tested doses 10–100 µM): approximately 20% | cell proliferation (L929 cell line; L929, 48h, 10 µM, Repeat No 1): 91% | cell proliferation (L929 cell line; L929, 48h, 10 µM, Repeat No 2): 102% | cell proliferation (L929 cell line; L929, 48h, 25 µM, Repeat No 1): 88% | cell proliferation (L929 cell line; L929, 48h, 25 µM, Repeat No 2): 93% | cell proliferation (L929 cell line; L929, 48h, 50 µM, Repeat No 1): 94% | cell proliferation (L929 cell line; L929, 48h, 50 µM, Repeat No 2): 99% | cell proliferation (L929 cell line; L929, 48h, 75 µM, Repeat No 1): 94% | cell proliferation (L929 cell line; L929, 48h, 75 µM, Repeat No 2): 99% | cell proliferation (L929 cell line; L929, 48h, 100 µM, Repeat No 1): 87% | cell proliferation (L929 cell line; L929, 48h, 100 µM, Repeat No 2): 84% | melting point: 205 to 208 °C | MBC [1]: 3.91 µg/mL (≈ 7.43 µM) | MIC [1]: 1.95 µg/mL (≈ 3.7 µM)

O=C(N/N=C/c1cc(Br)cc(Br)c1O)c1cccc(I)c1 [Compound 21, N-[(3,5-dibromo-2-hydroxyphenyl)methylidene]-3-iodobenzohydrazide]
MBC (Gram-positive bacteria): 3.91 to 62.5 µg/mL (≈ 7.46 to 119 µM) | MIC (Gram-positive bacteria): 3.91 to 15.6 µg/mL (≈ 7.46 to 29.8 µM) | MBC/MIC (Gram-positive bacteria; [2]): 1–4 | antibacterial activity in words (Gram-positive bacteria): strong or very strong | cell proliferation (L929 cell line; L929, 24h, 10 µM, Repeat No 1): 96% | cell proliferation (L929 cell line; L929, 24h, 10 µM, Repeat No 2): 102% | cell proliferation (L929 cell line; L929, 24h, 25 µM, Repeat No 1): 101% | cell proliferation (L929 cell line; L929, 24h, 25 µM, Repeat No 2): 97% | cell proliferation (L929 cell line; L929, 24h, 50 µM, Repeat No 1): 100% | cell proliferation (L929 cell line; L929, 24h, 50 µM, Repeat No 2): 106% | cell proliferation (L929 cell line; L929, 24h, 75 µM, Repeat No 1): 118% | cell proliferation (L929 cell line; L929, 24h, 75 µM, Repeat No 2): 109% | cell proliferation (L929 cell line; L929, 24h, 100 µM, Repeat No 1): 89% | cell proliferation (L929 cell line; L929, 24h, 100 µM, Repeat No 2): 96% | cytotoxicity (L929 cell line; tested doses 10–100 µM): approximately 20% | cell proliferation (L929 cell line; L929, 48h, 10 µM, Repeat No 1): 94% | cell proliferation (L929 cell line; L929, 48h, 10 µM, Repeat No 2): 98% | cell proliferation (L929 cell line; L929, 48h, 25 µM, Repeat No 1): 89% | cell proliferation (L929 cell line; L929, 48h, 25 µM, Repeat No 2): 97% | cell proliferation (L929 cell line; L929, 48h, 50 µM, Repeat No 1): 89% | cell proliferation (L929 cell line; L929, 48h, 50 µM, Repeat No 2): 88% | cell proliferation (L929 cell line; L929, 48h, 75 µM, Repeat No 1): 104% | cell proliferation (L929 cell line; L929, 48h, 75 µM, Repeat No 2): 96% | cell proliferation (L929 cell line; L929, 48h, 100 µM, Repeat No 1): 89% | cell proliferation (L929 cell line; L929, 48h, 100 µM, Repeat No 2): 84% | melting point: 210 to 211 °C | MBC [1]: 31.2 µg/mL (≈ 59.6 µM) | MIC [1]: 7.81 µg/mL (≈ 14.9 µM)

O=C(N/N=C/c1cc(Cl)cc(I)c1O)c1ccc(I)cc1 [Compound 27, N-[(5-chloro-2-hydroxy-3-iodophenyl)methylidene]-4-iodobenzohydrazide]
MBC/MIC (Gram-positive bacteria; [2]): 1–4 | MBC (Gram-positive bacteria; [3]): 31.2 to 500 µg/mL (≈ 59.4 to 950 µM) | MIC (Gram-positive bacteria; [4]): 31.2 to 125 µg/mL (≈ 59.4 to 237 µM) | antibacterial activity in words (Gram-positive bacteria): good (good bioactivity as a MIC in the range 26 – 125 µg/mL) | cell proliferation (L929 cell line; L929, 24h, 10 µM, Repeat No 1): 101% | cell proliferation (L929 cell line; L929, 24h, 10 µM, Repeat No 2): 89% | cell proliferation (L929 cell line; L929, 24h, 25 µM, Repeat No 1): 96% | cell proliferation (L929 cell line; L929, 24h, 25 µM, Repeat No 2): 92% | cell proliferation (L929 cell line; L929, 24h, 50 µM, Repeat No 1): 95% | cell proliferation (L929 cell line; L929, 24h, 50 µM, Repeat No 2): 81% | cell proliferation (L929 cell line; L929, 24h, 75 µM, Repeat No 1): 103% | cell proliferation (L929 cell line; L929, 24h, 75 µM, Repeat No 2): 107% | cell proliferation (L929 cell line; L929, 24h, 100 µM, Repeat No 1): 92% | cell proliferation (L929 cell line; L929, 24h, 100 µM, Repeat No 2): 91% | cytotoxicity (L929 cell line; tested doses 10–100 µM): approximately 20% | cell proliferation (L929 cell line; L929, 48h, 10 µM, Repeat No 1): 92% | cell proliferation (L929 cell line; L929, 48h, 10 µM, Repeat No 2): 89% | cell proliferation (L929 cell line; L929, 48h, 25 µM, Repeat No 1): 95% | cell proliferation (L929 cell line; L929, 48h, 25 µM, Repeat No 2): 99% | cell proliferation (L929 cell line; L929, 48h, 50 µM, Repeat No 1): 92% | cell proliferation (L929 cell line; L929, 48h, 50 µM, Repeat No 2): 91% | cell proliferation (L929 cell line; L929, 48h, 75 µM, Repeat No 1): 99% | cell proliferation (L929 cell line; L929, 48h, 75 µM, Repeat No 2): 92% | cell proliferation (L929 cell line; L929, 48h, 100 µM, Repeat No 1): 87% | cell proliferation (L929 cell line; L929, 48h, 100 µM, Repeat No 2): 92% | melting point: 200 to 201 °C | MBC [1]: 250 µg/mL (≈ 475 µM) | MIC [1]: 62.5 µg/mL (≈ 119 µM)
